Test results: ChEMBL document CHEMBL1201862, “PubChem BioAssay data set” (2004)
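How tested: cells in 96-well plates exposed to compound for 48 hours at five concentrations. Here, GI50 denotes the concentration required for 50% inhibition of growth.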 Calls of active or inactive are those of the source. Rule as the data show it: active = GI50 up to about 1.1 µM and inactive = higher.

Assays:
Assay in all cases: NCI anticancer screen, dose series, 48 h
[1] = system: 786-0
[2] = system: A498
[3] = system: A549
[4] = system: ACHN
[5] = system: BT-549
[6] = system: CAKI-1
[7] = system: CCRF-CEM
[8] = system: COLO 205
[9] = system: DU-145
[10] = system: EKVX
[11] = system: HCC 2998
[12] = system: HCT-116
[13] = system: HCT-15
[14] = system: HL-60
[15] = system: HOP-62
[16] = system: HOP-92
[17] = system: HT-29
[18] = system: Hs-578T
[19] = system: IGROV-1
[20] = system: K562
[21] = system: KM12
[22] = system: LOX IMVI
[23] = system: M14
[24] = system: MCF7
[25] = system: MDA-MB-231
[26] = system: MDA-MB-435
[27] = system: MDA-N
[28] = system: MOLT-4
[29] = system: Malme-3M
[30] = system: NCI-H226
[31] = system: NCI-H23
[32] = system: NCI-H460
[33] = system: NCI-H522
[34] = system: NCI/ADR-RES
[35] = system: OVCAR-3
[36] = system: OVCAR-4
[37] = system: OVCAR-5
[38] = system: OVCAR-8
[39] = system: PC-3
[40] = system: RPMI-8226
[41] = system: RXF 393
[42] = system: SF-268
[43] = system: SF-295
[44] = system: SF-539
[45] = system: SK-MEL-28
[46] = system: SK-MEL-2
[47] = system: SK-MEL-5
[48] = system: SK-OV-3
[49] = system: SN12C
[50] = system: SNB-19
[51] = system: SNB-75
[52] = system: SR
[53] = system: SW-620
[54] = system: T47D
[55] = system: TK-10
[56] = system: U-251
[57] = system: UACC-257
[58] = system: UACC-62
[59] = system: UO-31
[60] = system: KM-20L2

Brc1ccc2c(-c3nc(-c4c[nH]c5ccc(Br)cc45)cs3)c[nH]c2c1
GI50 [1]: 2.24 µM (inactive) | GI50 [2]: 2.41 µM (inactive) | GI50 [3]: 4.14 µM (inactive) | GI50 [4]: 1.67 µM (inactive) | GI50 [5]: 13.3 µM (inactive) | GI50 [6]: 4.03 µM (inactive) | GI50 [7]: 4.68 µM (inactive) | GI50 [8]: 2.54 µM (inactive) | GI50 [9]: 5.77 µM (inactive) | GI50 [10]: 1.24 µM (inactive) | GI50 [11]: 2.48 µM (inactive) | GI50 [12]: 3.67 µM (inactive) | GI50 [13]: 3.39 µM | GI50 [14]: 6.43 µM (inactive) | GI50 [15]: 11.7 µM (inactive) | GI50 [16]: 3.44 µM (inactive) | GI50 [17]: 1.86 µM (inactive) | GI50 [18]: 7.21 µM (inactive) | GI50 [19]: 2.99 µM (inactive) | GI50 [20]: 3.44 µM (inactive) | GI50 [21]: 2.62 µM (inactive) | GI50 [22]: 2.32 µM (inactive) | GI50 [23]: 3.92 µM (inactive) | GI50 [24]: 0.887 µM (active) | GI50 [25]: 3.69 µM (inactive) | GI50 [26]: 5.26 µM (inactive) | GI50 [27]: 4.45 µM (inactive) | GI50 [28]: 2.46 µM (inactive) | GI50 [29]: 4.24 µM (inactive) | GI50 [30]: 1.94 µM (inactive) | GI50 [31]: 3.24 µM (inactive) | GI50 [32]: 2.68 µM (inactive) | GI50 [33]: 1.95 µM (inactive) | GI50 [34]: 4.56 µM (inactive) | GI50 [35]: 10.2 µM (inactive) | GI50 [36]: 9.33 µM (inactive) | GI50 [37]: 2.96 µM (inactive) | GI50 [38]: 7.14 µM (inactive) | GI50 [39]: 6 µM (inactive) | GI50 [40]: 3.43 µM (inactive) | GI50 [41]: 4.45 µM (inactive) | GI50 [42]: 4.82 µM (inactive) | GI50 [43]: 3.92 µM (inactive) | GI50 [44]: 5.06 µM (inactive) | GI50 [45]: 11.3 µM (inactive) | GI50 [46]: 6.25 µM (inactive) | GI50 [47]: 4.51 µM (inactive) | GI50 [48]: 15.4 µM (inactive) | GI50 [49]: 4.63 µM (inactive) | GI50 [50]: 4.25 µM (inactive) | GI50 [51]: 14.5 µM (inactive) | GI50 [52]: 3.15 µM (inactive) | GI50 [53]: 4.61 µM (inactive) | GI50 [54]: 4.86 µM (inactive) | GI50 [55]: 5.51 µM (inactive) | GI50 [56]: 4.43 µM (inactive) | GI50 [57]: 8.75 µM (inactive) | GI50 [58]: 2.87 µM (inactive) | GI50 [59]: 4.1 µM (inactive)

c1ccncc1
GI50 [1]: > 100 µM (inactive) | GI50 [2]: > 100 µM (inactive) | GI50 [6]: > 100 µM (inactive) | GI50 [7]: > 100 µM (inactive) | GI50 [8]: > 100 µM (inactive) | GI50 [10]: > 100 µM (inactive) | GI50 [11]: > 100 µM (inactive) | GI50 [12]: > 100 µM (inactive) | GI50 [14]: > 100 µM (inactive) | GI50 [15]: > 100 µM (inactive) | GI50 [16]: > 100 µM (inactive) | GI50 [17]: > 100 µM (inactive) | GI50 [19]: > 100 µM (inactive) | GI50 [20]: > 100 µM (inactive) | GI50 [60]: > 100 µM (inactive) | GI50 [21]: > 100 µM (inactive) | GI50 [23]: > 100 µM (inactive) | GI50 [28]: > 100 µM (inactive) | GI50 [32]: > 100 µM (inactive) | GI50 [33]: > 100 µM (inactive) | GI50 [35]: > 100 µM (inactive) | GI50 [36]: > 100 µM (inactive) | GI50 [37]: > 100 µM (inactive) | GI50 [38]: > 100 µM (inactive) | GI50 [40]: > 100 µM (inactive) | GI50 [41]: > 100 µM (inactive) | GI50 [43]: > 100 µM (inactive) | GI50 [45]: > 100 µM (inactive) | GI50 [46]: > 100 µM (inactive) | GI50 [47]: > 100 µM (inactive) | GI50 [48]: > 100 µM (inactive) | GI50 [50]: > 100 µM (inactive) | GI50 [51]: > 100 µM (inactive) | GI50 [53]: > 100 µM (inactive) | GI50 [55]: > 100 µM (inactive) | GI50 [56]: > 100 µM (inactive) | GI50 [57]: > 100 µM (inactive) | GI50 [58]: > 100 µM (inactive) | GI50 [59]: > 100 µM (inactive)
